Here are results for two molecules from patent publication EP4725957A1, “GROUP OF CYCLIC ALKALINE LIPOPEPTIDE COMPOUNDS, AND PREPARATION METHOD THEREFOR AND USE THEREOF” (Institute of Medicinal Biotechnology, Chinese Academy of …, priority 2023, dated 2024).

Data set [1] in a line: Acute toxicity test in healthy mice, single tail vein injection. The data set is classed as in vivo. Conditions: mouse, in vivo, iv; ICR mice, single tail vein injection, Bliss method. As to the method:
(§1) Healthy ICR mice aged 5-6 weeks were selected, with 5-10 mice in each group, and administered via a single tail vein injection at an administration volume of 20 mL/kg. In the preliminary test, the drug dose concentrations that caused 100% mortality and no mortality in mice after a single intravenous injection were determined. Based on this dose range, 4-5 dose groups were set up, with a dose ratio of 1:0.5 to 1:0.8 between adjacent groups. The mortality of animals within 7 days after administration was recorded. According to the mortality rate of experimental animals in each group, the median lethal dose (LD50) of the test samples, i.e., the dose causing 50% mortality of the tested animals, was calculated by the Bliss method.

The next data set deals with Healthy ICR mice. The description is as above. It counts as in vivo. As to conditions: within 7 days. The protocol: as §1
Data set [2] can be described thus: Nephrotoxicity assay: in vitro cytotoxicity of HK-2 cells by CCK-8 assay. The data set is classed as cell-based. Conditions: human, HK-2 cells (human renal), 72 h incubation with drug-containing medium. In short, it runs like this: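 HK-2 human renal cells in RPMI-1640 with 10% FBS were exposed to compounds at final 12.5–500 µg/mL for 72 h, then CCK-8 for 3 h and OD450 read. Viability was normalised to drug-free wells; IC50 came from logarithmic regression over three repeats, with polymyxin B as positive drug.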

For data set [3], the system named is Klebsiella pneumoniae ATCC BAA-1705 (KPC). It counts as cell-based. Conditions: Klebsiella pneumoniae ATCC BAA-1705 (KPC). The method, boiled down: (§2)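 Colonies from 18-24 h plates were suspended to 0.5 McFarland and diluted in MH broth. Two-fold compound dilutions were then mixed 1:1 with inoculum to reach 64 to 0.03 mg/L and (2-4) × 10^5 CFU/mL. Plates were sealed and incubated at 35-37°C for 16-20 h, after which the MIC was read.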

Data set [4] relates to Pseudomonas aeruginosa PAE19-3. It counts as cell-based. Conditions: Pseudomonas aeruginosa PAE19-3. The method, boiled down:
as §2

Data set [5] deals with Escherichia coli ATCC BAA-2523. It counts as cell-based. As to conditions: Escherichia coli ATCC BAA-2523. In short, it runs like this: as §2
In data set [6] the test system is Klebsiella pneumoniae KPN+19-15. The data set is classed as cell-based. Conditions: Klebsiella pneumoniae KPN 19-15. The method, boiled down: as §2
Data set [7] relates to Escherichia coli ATCC BAA-2340 (KPC). It counts as cell-based. Conditions: Escherichia coli ATCC BAA-2340 (KPC). In short, it runs like this: as §2
The test system of data set [8] is Acinetobacter baumannii NCTC 13304 (OXA-27). The data set is classed as cell-based. Conditions: Acinetobacter baumannii NCTC 13304 (OXA-27). In short, it runs like this: as §2
The test system of data set [9] is Pseudomonas aeruginosa ATCC 27853. It counts as cell-based. Conditions: Pseudomonas aeruginosa ATCC27853. In short, it runs like this: as §2
The test system of data set [10] is Acinetobacter baumannii ABA19-1. It counts as cell-based. As to conditions: Acinetobacter baumannii ABA19-1. In short, it runs like this:
as §2

Data set [11] has as its system Pseudomonas aeruginosa ATCC27853. The data set is described as follows: In vivo antibacterial (protection) test in infected mice. As to conditions: infected ICR mice, 7 days observation. The text has this: Pseudomonas aeruginosa ATCC27853 was selected for the determination of in vivo antibacterial activity.
One day before infection, the test bacteria were inoculated onto the corresponding nutrient agar plates and cultured overnight. On the day of infection, single colonies grown on the plates were picked and suspended in sterile normal saline, and the suspension was mixed thoroughly to obtain the original bacterial solution. The bacterial solution was then adjusted to the required concentration with 5% dried yeast powder and prepared freshly prior to use.
Healthy ICR mice were randomly divided into groups, with 5 mice per group, half male and half female. Bacterial solutions of different dilutions were aspirated and injected intraperitoneally into mice at a volume of 0.5 mL per 20 g of body weight. The mortality of mice was recorded within 7 days after infection. The minimum bacterial dose causing 100% mortality in mice was defined as the minimum lethal dose (MLD), which was used as the infection dose for the in vivo protection test.
Drug administration was performed via tail vein injection at 2 h, 8 h, 24 h, and 30 h after infection, with a total of 4 administrations, and the administration volume was 20 mL/kg. For the preparation of drug solutions, Compound 7, together with the control drugs polymyxin B and meropenem, were dissolved in normal saline to the required concentrations for tail vein injection, and all solutions were prepared freshly prior to use.
In the preliminary test, the drug dose concentrations that caused 100% mortality and no mortality in mice after infection with the tested bacteria were determined. Based on this dose range, 4-5 dose groups were established, with a dose ratio of 1:0.5 to 1:0.8 between adjacent groups.
Mice were randomly grouped according to body weight, with 8 mice per group (half male and half female). Each mouse was intraperitoneally infected with the test bacterial solution at a volume of 0.5 mL per 20 g of body weight, followed by tail vein injection at 2 h, 8 h, 24 h, and 30 h after infection. Mice in the blank control group were not infected with bacterial solution but were only given an equal volume of vehicle at an administration volume of 20 mL/kg. The mortality of mice was observed and recorded for 7 consecutive days.
The minimum lethal bacterial concentration of Pseudomonas aeruginosa ATCC27853 for intraperitoneal infection in mice was 4.2 × 10^2 CFU/mL, which was used as the infection dose in the formal test.
Mice in the infection control group were intraperitoneally inoculated with Pseudomonas aeruginosa ATCC27853 bacterial solution at the MLD concentration ([…]). Infection symptoms began to appear 3-4 hours after inoculation, and all 8 animals died within 48 hours (8/8), with a mortality rate of 100%.

≈ marks a conversion by molar mass, not a printed value. Bridge positions count the residues as written; N and C are the ends. Square brackets hold non-standard residues; d marks the D form. Peptide text beside a SMILES is read from it. * marks the point of attachment. Heptanoyl(6-Me) = CC(C)CCCCC(=O)*; dDap = NC[C@@H](N)C(=O)O; Dab = NCC[C@H](N)C(=O)O

As for `CC(C)CCCCC(=O)N[C@@H](CCN)C(=O)N[C@H](C(=O)N[C@H](CN)C(=O)N[C@H]1CCNC(=O)[C@H]([C@@H](C)O)NC(=O)[C@H](CCN)NC(=O)[C@H](CCN)NC(=O)[C@H]([C@@H](C)O)NC(=O)[C@@H](Cc2ccccc2)NC(=O)[C@H](CCN)NC1=O)[C@@H](C)O` [Compound 2, 6-methylheptanoyl-Dab-Thr-D-Dap-ring(4-10)[Dab-Dab-D-Phe-Thr-Dab-Dab-Thr]] ({Heptanoyl(6-Me)}-[Dab]T[dDap][Dab][Dab][dF]T[Dab][Dab]T; lactam 4-C), the LD50 at 168 h in data set [1] is 22 mg/kg. Also, the mortality rate in the data set with Healthy ICR mice (single tail vein injection 15.36 mg/kg) is listed as 0%; with Healthy ICR mice (single tail vein injection 19.2 mg/kg), 25%; in the data set on Healthy ICR mice (single tail vein injection 24 mg/kg), 62.5%; in the data set with Healthy ICR mice (single tail vein injection 30 mg/kg), 100%. The IC50 at 72 h in [2] was greater than 500 µg/mL. Besides, the minimum inhibitory concentration (MIC) was no more than 0.03 µg/mL in data set [3]; 0.125 µg/mL (≈ 0.107 µM) in data set [4]; no more than 0.03 µg/mL in data set [5]; no more than 0.03 µg/mL in data set [6]; no more than 0.03 µg/mL in data set [7]; no more than 0.03 µg/mL in [8]. The MIC in data set [9] and in data set [10] was no more than 0.03 µg/mL each time.

As to Polymyxin B [reference compound], the mortality rate is on record as 100% in data set [11] (0.7 mg/kg tail vein twice daily for 2 days), 100% in data set [11] (1.0 mg/kg tail vein twice daily for 2 days), 87.5% in [11] (1.4 mg/kg tail vein twice daily for 2 days) and 62.5% in data set [11] (2 mg/kg tail vein twice daily for 2 days). Further, the MIC is 0.125 µg/mL in data set [3]; 0.25 µg/mL in [4]; 0.03 µg/mL in data set [5]; 0.125 µg/mL in [6]; 0.03 µg/mL in data set [7]; 0.06 µg/mL in data set [8]. The MIC in [9] and in data set [10] was 0.25 µg/mL each time.
